Laboratory results as given in patent US7595401B2, “Therapeutic compounds and their use in cancer” (Myriad Pharmaceuticals, Inc., priority 2006, dated 2009).

The compounds below were run on purified human Hsp90 (assay: Binding Assay: fluorescence polarization with BODIPY-labeled geldanamycin). Conditions: 5 μM compound, BODIPY-GM 10 nM, Hsp90 30 nM.
Description: Compound binding to purified Hsp90 was monitored using BODIPY-labeled geldanamycin (BODIPY-GM) in a fluorescence polarization assay adapted from Kim et al. (Journal of Biomolecular Screening 2004, 9(5):375-381). Compound dilutions (in 100% DMSO) were added to black-bottom 96-well plates (Greiner; 2% DMSO final), and equal volumes of BODIPY-GM (10 nM final) and purified human Hsp90 (Stressgen, SPP-770; 30 nM final) in assay buffer (20 mM HEPES-KOH pH 7.3, 50 mM KCl, 5 mM MgCl2, 20 mM Na2MoO4, 0.01% NP-40, 0.1 mg/mL bovine gamma globulin [Invitrogen, P2045], 2 mM DTT) were added sequentially to yield a final volume of 50 microliters. Plates were incubated overnight at room temperature. Parallel and perpendicular fluorescence measurements were read (LJL BioSystems Analyst AD plate reader) with excitation/emission wavelengths of 485/530 nm. Background fluorescence (buffer only) was subtracted, and fluorescence polarization (FP) values, expressed in mP units, were calculated from parallel and perpendicular fluorescence readings as follows: FP=(parallel−perpendicular)/(parallel+perpendicular)*1000
Percent inhibition was calculated by normalizing the FP values to those obtained in parallel reactions containing DMSO and subtracting these normalized values from 100%. Intrinsic compound fluorescence was independently monitored, and FP data points confounded by compound fluorescence were excluded from the analysis.
For COc1ccc(OC)c(Sc2nc3c(N)ncn(CC(c4ccccc4)C(C)C)c-3n2)c1 (stereo not shown) [Example 114, 8-(2,5-dimethoxy-phenylsulfanyl)-3-(3-methyl-2-phenyl-butyl)-3H-purin-6-ylamine], the “% Inhibition at 5 μM Compound Concentration” value (shortened to “% Inhibition”) was 14%. In the case of COc1ccc(OC)c(Sc2nc3c(N)ncn(CCC(NC(=O)OC(C)(C)C)C4CC4)c-3n2)c1 (stereo not shown) [Example 665, tert-Butyl(3-{6-amino-8-[(2,5-dimethoxyphenyl)thio]-3H-purin-3-yl}-1-cyclopropylpropyl)carbamate], the “% Inhibition” value is reported as 0%. With COc1ccc(OC)c(Sc2nc3c(N)ncn(CCc4ccc5c(c4)OCO5)c-3n2)c1 [Example 168, 3-(2-benzo[1,3]dioxol-5-yl-ethyl)-8-(2,5-dimethoxy-phenylsulfanyl)-3H-purin-6-ylamine] the “% Inhibition” value was 0%. COc1ccc(OC)c(Sc2nc3c(N)ncn(CCn4cnc5ccccc5c4=O)c-3n2)c1 [Example 272, 3-(2-{6-Amino-8-[(2,5-dimethoxyphenyl)thio]-3H-purin-3-yl}ethyl)quinazolin-4(3 H)-one] was tested, and the “% Inhibition” value was 16%. With COc1ccc(OC)c(Sc2nc3c(N)ncn(CCC4CCN(C(=O)OC(C)(C)C)CC4)c-3n2)c1 [Example 343, tert-Butyl 4-(2-{6-amino-8-[(2,5-dimethoxyphenyl)thio]-3H-purin-3-yl}ethyl)piperidine-1-carboxylate] the “% Inhibition” value was 0%. In the case of COc1ccc(Sc2nc3c(N)ncn(CCc4ccccc4)c-3n2)c(OC)c1 [Example 16, 8-(2,4-dimethoxy-phenylsulfanyl)-3-phenethyl-3H-purin-6-ylamine], the “% Inhibition” value is reported as 6%. With Nc1ncn(Cc2ccccc2)c2nc(Sc3cc4c(cc3Br)OCO4)nc1-2 [Example 265, 3-Benzyl-8-[(6-bromo-1,3-benzodioxol-5-yl)thio]-3H-purin-6-amine] the “% Inhibition” value was 20%. Nc1ncn(CCc2cccc(F)c2F)c2nc(Sc3cc4c(cc3Br)OCO4)nc1-2 [Example 162, 8-(6-bromo-benzo[1,3]dioxol-5-ylsulfanyl)-3-[2-(2,3-difluoro-phenyl)-ethyl]-3H-purin-6-ylamine] was tested, and the “% Inhibition” value was 0%. CO[C@H](C)C(=O)N1CCC(CCn2cnc(N)c3nc(Sc4cc5c(cc4Br)OCO5)nc2-3)CC1 [Example 726, 8-[(6-Bromo-1,3-benzodioxol-5-yl)thio]-3-(2-{1-[(2R)-2-methoxypropanoyl]piperidin-4-yl}ethyl)-3 H-purin-6-amine] was tested, and the “% Inhibition” value was 26%. For COc1ccc(OC)c(Sc2nc3c(N)ncnc3n2CCc2ccc(S(=O)(=O)O)cc2)c1 [Example 175, 4-{2-[6-Amino-8-(2,5-dimethoxy-phenylsulfanyl)-purin-9-yl]-ethyl}-benzenesulfonic acid], the “% Inhibition” value was 46%. In the case of Nc1ncn(CCc2ccc(-c3ccccc3)cc2)c2nc(Sc3cc4c(cc3Br)OCO4)nc1-2 [Example 172, 3-(2-biphenyl-4-yl-ethyl)-8-(6-bromo-benzo[1,3]dioxol-5-ylsulfanyl)-3H-purin-6-ylamine], the “% Inhibition” value is reported as >10%. CC(=O)N1CCC(CCn2cnc(N)c3nc(Sc4ccc5c(c4)OC(F)(F)O5)nc2-3)CC1 [Example 572, 3-[2-(1-Acetylpiperidin-4-yl)ethyl]-8-[(2,2-difluoro-1,3-benzodioxol-5-yl)thio]-3 H-purin-6-amine] was tested, and the “% Inhibition” value was 0.00%. With CC(C)(C)OC(=O)N1C=C(CCn2cnc(N)c3nc(Sc4cc5c(cc4Br)OCO5)nc2-3)CCC1 [Example 463, tert-Butyl 5-(2-{6-amino-8-[(6-bromo-1,3-benzodioxol-5-yl)thio]-3H-purin-3-yl}ethyl)-3,4-dihydropyridine-1(2 H)-carboxylate] the “% Inhibition” value was 14%. For CC(C)CN1CCCCC1CCn1cnc(N)c2nc(Sc3cc4c(cc3Br)OCO4)nc1-2 (stereo not shown) [Example 448, 8-[(6-Bromo-1,3-benzodioxol-5-yl)thio]-3-[2-(1-isobutylpiperidin-2-yl)ethyl]-3H-purin-6-amine], the “% Inhibition” value was 45%. For N#Cc1cc2c(cc1Sc1nc3c(N)ncn(CCc4ccccc4)c-3n1)OCO2 [Example 321, 6-{[6-Amino-3-(2-phenylethyl)-3H-purin-8-yl]thio}-1,3-benzodioxole-5-carbonitrile], the “% Inhibition” value was 49.0%.

Same assay, conditions: BODIPY-GM 10 nM, Hsp90 30 nM
For CC(C)(C)OC(=O)N1CCCC1CCn1c(Sc2cc3c(cc2Br)OCO3)nc2c(N)ncnc21 (stereo not shown) [Example 414, tert-Butyl 2-(2-{6-amino-8-[(6-bromo-1,3-benzodioxol-5-yl)thio]-9H-purin-9-yl}ethyl)pyrrolidine-1-carboxylate], the IC50 was 540 nM. In the case of COc1ccc(F)cc1Sc1nc2c(N)ncnc2n1CCc1ccccc1 [Example 312, 8-[(5-Fluoro-2-methoxyphenyl)thio]-9-(2-phenylethyl)-9H-purin-6-amine], the IC50 is reported as > 25000 nM. CC(C)(C)C(=O)N1CCCC(CCn2c(Sc3cc4c(cc3Br)OCO4)nc3c(N)ncnc32)C1 (stereo not shown) [Example 449, 8-[(6-Bromo-1,3-benzodioxol-5-yl)thio]-9-{2-[1-(2,2-dimethylpropanoyl)piperidin-3-yl]ethyl}-9H-purin-6-amine] showed an IC50 of 200 nM. COc1ccc(OC)c(Sc2nc3c(N)ncnc3n2CCC(NC(=O)OC(C)(C)C)C2CCSCC2)c1 (stereo not shown) [Example 668, tert-Butyl[3-{6-amino-8-[(2,5-dimethoxyphenyl)thio]-9H-purin-9-yl}-1-(tetrahydro-2H-thiopyran-4-yl)propyl]carbamate] was tested, and the IC50 was 4800 nM. COc1ccnc(Sc2nc3c(N)ncnc3n2CCC2CCN(C=O)CC2)c1 [Example 538, 4-(2-{6-Amino-8-[(4-methoxypyridin-2-yl)thio]-9 H-purin-9-yl}ethyl)piperidine-1-carbaldehyde] showed an IC50 of 1600 nM. Work on CC(C)(C)OC(=O)N[C@H]1CC[C@@H](CCn2c(Sc3cc4c(cc3Br)OCO4)nc3c(N)ncnc32)CC1 [Example 398, tert-Butyl [cis-4-(2-{6-amino-8-[(6-bromo-1,3-benzodioxol-5-yl)thio]-9H-purin-9-yl}ethyl)cyclohexyl]carbamate] yielded an IC50 of 140 nM. Nc1ncnc2c1nc(Sc1cc3c(cc1Br)OCO3)n2CCC1CCCNC1 (stereo not shown) [Example 466, 8-[(6-Bromo-1,3-benzodioxol-5-yl)thio]-9-(2-piperidin-3-ylethyl)-9H-purin-6-amine] gave an IC50 of 60 nM. In the case of COc1ccc(OC)c(Sc2nc3c(N)ncn(CCc4ccccc4)c-3n2)c1 [Example 2, 8-(2,5-dimethoxy-phenylsulfanyl)-3-phenethyl-3H-purin-6-ylamine], the IC50 is reported as 3470 nM. With COc1cc(C#N)c(Sc2nc3c(N)ncn(CCC4CCN(C(C)=O)CC4)c-3n2)cc1OC [Example 623, 2-({3-[2-(1-Acetylpiperidin-4-yl)ethyl]-6-amino-3 H-purin-8-yl}thio)-4,5-dimethoxybenzonitrile] the IC50 was > 4000 nM. Compound COc1ccc(OC)c(Sc2nc3c(N)ncnc3n2CCc2ccc(S(=O)(=O)O)cc2)c1 [Example 175, 4-{2-[6-Amino-8-(2,5-dimethoxy-phenylsulfanyl)-purin-9-yl]-ethyl}-benzenesulfonic acid] has an IC50 of 14000 nM. Work on CC(C)(C)NC(=O)N1CCCC(CCn2c(Sc3cc4c(cc3Br)OCO4)nc3c(N)ncnc32)C1 (stereo not shown) [Example 437, 3-(2-{6-Amino-8-[(6-bromo-1,3-benzodioxol-5-yl)thio]-9H-purin-9-yl}ethyl)-N-(tert-butyl)piperidine-1-carboxamide] yielded an IC50 of 390 nM. With C[C@H](O)C(=O)N1CCC(CCn2c(Sc3nc4cccc(Cl)c4s3)nc3c(N)ncnc32)CC1 [Example 775, (2S)-1-[4-(2-{6-Amino-8-[(7-chloro-1,3-benzothiazol-2-yl)thio]-9H-purin-9-yl}ethyl)piperidin-1-yl]-1-oxopropan-2-ol] the IC50 was 1800 nM. CC(C)(C)OC(=O)N1CCCC[C@H]1CCn1c(Sc2cc3c(cc2Br)OCO3)nc2c(N)ncnc21 [Example 416, tert-Butyl (2S)-2-(2-{6-amino-8-[(6-bromo-1,3-benzodioxol-5-yl)thio]-9H-purin-9-yl}ethyl)piperidine-1-carboxylate] gave an IC50 of 200 nM. In the case of COc1ccc(C#N)cc1Sc1nc2c(N)ncnc2n1CCc1ccccc1 [Example 304, 3-{[6-Amino-9-(2-phenylethyl)-9H-purin-8-yl]thio}-4-methoxybenzonitrile], the IC50 is reported as > 25000 nM. With Nc1ncnc2c1nc(Sc1cc3c(cc1Br)OCO3)n2CCC1CCN(C(=O)[C@@H]2CCN2)CC1 [Example 752, 9-(2-{1-[(2S)-Azetidin-2-ylcarbonyl]piperidin-4-yl}ethyl)-8-[(6-bromo-1,3-benzo-dioxol-5-yl)thio]-9H-purin-6-amine] the IC50 was 130 nM. In the case of COc1ccc(OC)c(Sc2nc3c(N)ncnc3n2CCNC(C)(C)c2ccccn2)c1 [Example 334, 8-[(2,5-Dimethoxyphenyl)thio]-9-{2-[(1-methyl-1-pyridin-2-ylethyl)amino]ethyl}-9H-purin-6-amine], the IC50 is reported as 2300 nM. For COc1ccc(OC)c(Sc2nc3c(N)ncn(CCc4ccc(C)cc4)c-3n2)c1 [Example 24, 8-(2,5-dimethoxy-phenylsulfanyl)-3-(2-p-tolyl-ethyl)-3H-purin-6-ylamine], the IC50 was > 10000 nM. With COc1ccc(OC)c(Sc2nc3c(N)ncnc3n2CCC2(F)C(F)(F)C(F)(F)C(F)(F)C(F)(F)C2(F)F)c1 [Example 384, 8-[(2,5-Dimethoxyphenyl)thio]-9-[2-(undecafluorocyclohexyl)ethyl]-9H-purin-6-amine] the IC50 was > 1000 nM. COc1ccc(OC)c(Sc2nc3c(N)ncnc3n2CCN2CCNC(=O)C2)c1 [Example 634, 4-(2-{6-Amino-8-[(2,5-dimethoxyphenyl)thio]-9 H-purin-9-yl}ethyl)piperazin-2-one] gave an IC50 of 8100 nM.
